Results from ChEMBL document CHEMBL4152339, “Design and synthesis of novel 1H-tetrazol-5-amine based potent antimicrobial agents: DNA topoisomerase IV and gyrase affinity evaluation supported by molecular docking studies” (Eur J Med Chem, 2018).
Values after ≈ are worked out from the molar mass of the structure shown.

Experiments:
Format in all cases: functional
[1] = tested on: Staphylococcus epidermidis; assay: Antibacterial activity against Staphylococcus epidermidis 423 after 18 hrs by CLSI disc diffusion method; details: Staphylococcus epidermidis, 423, 18 h
[2] = tested on: Staphylococcus epidermidis; assay: Antibacterial activity against Staphylococcus epidermidis 432 after 18 hrs by CLSI disc diffusion method; details: Staphylococcus epidermidis, 432, 18 h
[3] = tested on: Staphylococcus epidermidis; assay: Antibacterial activity against Staphylococcus epidermidis 511 after 18 hrs by CLSI disc diffusion method; details: Staphylococcus epidermidis, 511, 18 h
Bacillus spizizenii = assay: Antibacterial activity against Bacillus subtilis ATCC 6633 after 18 hrs by CLSI disc diffusion method; details: ATCC 6633, 18 h
[4] = tested on: Staphylococcus epidermidis; assay: Antibacterial activity against Staphylococcus epidermidis 433 after 18 hrs by CLSI disc diffusion method; details: Staphylococcus epidermidis, 433, 18 h
Micrococcus luteus [5] = assay: Antibacterial activity against Micrococcus luteus ATCC 10240 after 18 hrs by CLSI disc diffusion method; details: ATCC 10240, 18 h
[6] = tested on: Staphylococcus epidermidis; assay: Antibacterial activity against Staphylococcus epidermidis ATCC 35984 after 18 hrs by CLSI […] method; details: ATCC 35984, 18 h
[7] = tested on: Bordetella bronchiseptica; assay: Antibacterial activity against Bordetella bronchiseptica ATCC 4617 after 18 hrs by CLSI disc diffusion method; details: ATCC 4617, 18 h
Escherichia coli [8] = assay: Antibacterial activity against Escherichia coli ML 6 after 18 hrs by CLSI disc diffusion method; details: ML 6, 18 h
Staphylococcus aureus [9] = assay: Antibacterial activity against Staphylococcus aureus 497 after 18 hrs by CLSI disc diffusion method; details: Staphylococcus aureus, 497, 18 h
Staphylococcus aureus [10] = assay: Antibacterial activity against Staphylococcus aureus 572 after 18 hrs by CLSI disc diffusion method; details: Staphylococcus aureus, 572, 18 h
Pseudomonas aeruginosa [11] = assay: Antibacterial activity against Pseudomonas aeruginosa ATCC 27853 after 18 hrs by CLSI disc diffusion method; details: ATCC 27853, 18 h
Pseudomonas aeruginosa [12] = assay: Antibacterial activity against Pseudomonas aeruginosa 11m after 18 hrs by CLSI disc diffusion method
[13] = tested on: Staphylococcus epidermidis; assay: Antibacterial activity against Staphylococcus epidermidis 510 after 18 hrs by CLSI disc diffusion method; details: Staphylococcus epidermidis, 510, 18 h
Micrococcus luteus [14] = assay: Antibacterial activity against Micrococcus luteus ATCC 9341 after 18 hrs by CLSI disc diffusion method; details: ATCC 9341, 18 h
Proteus vulgaris = assay: Antibacterial activity against Proteus vulgaris NCTC 4635 after 18 hrs by CLSI disc diffusion method; details: NCTC 4635, 18 h
Enterococcus faecalis = assay: Antibacterial activity against Enterococcus faecalis ATCC 29212 after 18 hrs by CLSI disc diffusion method; details: ATCC 29212, 18 h
Escherichia coli [15] = assay: Antibacterial activity against Escherichia coli ML 9 after 18 hrs by CLSI disc diffusion method; details: ML 9, 18 h
Escherichia coli [16] = assay: Antibacterial activity against Escherichia coli ML 16 after 18 hrs by CLSI disc diffusion method; details: ML 16, 18 h
Pseudomonas aeruginosa [17] = assay: Antibacterial activity against Pseudomonas aeruginosa 7m after 18 hrs by CLSI disc diffusion method
Bacillus cereus = assay: Antibacterial activity against Bacillus cereus ATCC 11778 after 18 hrs by CLSI disc diffusion method; details: ATCC 11778, 18 h
Escherichia coli [18] = assay: Antibacterial activity against Escherichia coli ML 15 after 18 hrs by CLSI disc diffusion method; details: ML 15, 18 h
Staphylococcus aureus [19] = assay: Antibacterial activity against Staphylococcus aureus 586 after 18 hrs by CLSI disc diffusion method; details: Staphylococcus aureus, 586, 18 h
Staphylococcus aureus [20] = assay: Antibacterial activity against Staphylococcus aureus 495 after 18 hrs by CLSI disc diffusion method; details: Staphylococcus aureus, 495, 18 h
Pseudomonas aeruginosa [21] = assay: Antibacterial activity against Pseudomonas aeruginosa 6m after 18 hrs by CLSI disc diffusion method
[22] = tested on: Staphylococcus epidermidis; assay: Antibacterial activity against Staphylococcus epidermidis 471 after 18 hrs by CLSI disc diffusion method; details: Staphylococcus epidermidis, 471, 18 h
[23] = tested on: Staphylococcus epidermidis; assay: Antibacterial activity against Staphylococcus epidermidis ATCC 12228 after 18 hrs by CLSI disc diffusion method; details: ATCC 12228, 18 h
[24] = tested on: Staphylococcus epidermidis; assay: Antibacterial activity against Staphylococcus epidermidis 469 after 18 hrs by CLSI disc diffusion method; details: Staphylococcus epidermidis, 469, 18 h
Pseudomonas aeruginosa [25] = assay: Antibacterial activity against Pseudomonas aeruginosa 31m after 18 hrs by CLSI disc diffusion method
Escherichia coli [26] = assay: Antibacterial activity against Escherichia coli ATCC 10538 after 18 hrs by CLSI disc diffusion method; details: ATCC 10538, 18 h
Pseudomonas aeruginosa [27] = assay: Antibacterial activity against Pseudomonas aeruginosa ATCC 15442 after 18 hrs by CLSI disc diffusion method; details: ATCC 15442, 18 h
Staphylococcus aureus [28] = assay: Antibacterial activity against Staphylococcus aureus ATCC 6538 after 18 hrs by CLSI disc diffusion method; details: ATCC 6538, 18 h
Enterococcus hirae = assay: Antibacterial activity against Enterococcus hirae ATCC 10541 after 18 hrs by CLSI disc diffusion method; details: ATCC 10541, 18 h
Staphylococcus aureus [29] = assay: Antibacterial activity against Staphylococcus aureus ATCC 25923 after 18 hrs by CLSI disc diffusion method; details: ATCC 25923, 18 h
[30] = tested on: Staphylococcus epidermidis; assay: Antibacterial activity against Staphylococcus epidermidis 431 after 18 hrs by CLSI disc diffusion method; details: Staphylococcus epidermidis, 431, 18 h
Pseudomonas aeruginosa [31] = assay: Antibacterial activity against Pseudomonas aeruginosa 18m after 18 hrs by CLSI disc diffusion method
Escherichia coli [32] = assay: Antibacterial activity against Escherichia coli ML 12 after 18 hrs by CLSI disc diffusion method; details: ML 12, 18 h
Pseudomonas aeruginosa [33] = assay: Antibacterial activity against Pseudomonas aeruginosa 12m after 18 hrs by CLSI disc diffusion method
Escherichia coli [34] = assay: Antibacterial activity against Escherichia coli ML 5 after 18 hrs by CLSI disc diffusion method; details: ML 5, 18 h
Staphylococcus aureus [35] = assay: Antibacterial activity against Staphylococcus aureus NCTC 4163 after 18 hrs by CLSI disc diffusion method; details: NCTC 4163, 18 h
Staphylococcus aureus [36] = assay: Antibacterial activity against Staphylococcus aureus 498 after 18 hrs by CLSI disc diffusion method; details: Staphylococcus aureus, 498, 18 h
Staphylococcus aureus [37] = assay: Antibacterial activity against Staphylococcus aureus 496 after 18 hrs by CLSI disc diffusion method; details: Staphylococcus aureus, 496, 18 h
Escherichia coli [38] = assay: Antibacterial activity against Escherichia coli ML 17 after 18 hrs by CLSI disc diffusion method; details: ML 17, 18 h
Staphylococcus aureus [39] = assay: Antibacterial activity against Staphylococcus aureus 537 after 18 hrs by CLSI disc diffusion method; details: Staphylococcus aureus, 537, 18 h
Staphylococcus aureus [40] = assay: Antibacterial activity against Staphylococcus aureus 585 after 18 hrs by CLSI disc diffusion method; details: Staphylococcus aureus, 585, 18 h
Escherichia coli [41] = assay: Antibacterial activity against Escherichia coli ML 8 after 18 hrs by CLSI disc diffusion method; details: ML 8, 18 h
Pseudomonas aeruginosa [42] = assay: Antibacterial activity against Pseudomonas aeruginosa 16m after 18 hrs by CLSI disc diffusion method
Pseudomonas aeruginosa [43] = assay: Antibacterial activity against Pseudomonas aeruginosa 10m after 18 hrs by CLSI disc diffusion method

Structure (SMILES): O=C(O)n1nnnc1Nn1cnnc1
- MIC [1]: 20 µM (≈ 3.92 µg/mL)
- MIC [2]: 41 µM (≈ 8.04 µg/mL)
- MIC [3]: 20 µM (≈ 3.92 µg/mL)
- MIC (Bacillus spizizenii): 5 µM (≈ 0.981 µg/mL)
- MIC [4]: 20 µM (≈ 3.92 µg/mL)
- MIC (Micrococcus luteus [5]): 20 µM (≈ 3.92 µg/mL)
- MIC [6]: 5 µM (≈ 0.981 µg/mL)
- MIC [7]: 652 µM (≈ 128 µg/mL)
- MIC (Escherichia coli [8]): 1300 µM (≈ 256 µg/mL)
- MIC (Staphylococcus aureus [9]): 82 µM (≈ 16.1 µg/mL)
- MIC (Staphylococcus aureus [10]): 41 µM (≈ 8.04 µg/mL)
- MIC (Pseudomonas aeruginosa [11]): 1300 µM (≈ 256 µg/mL)
- MIC (Pseudomonas aeruginosa [12]): 652 µM (≈ 128 µg/mL)
- MIC [13]: 20 µM (≈ 3.92 µg/mL)
- MIC (Micrococcus luteus [14]): 20 µM (≈ 3.92 µg/mL)
- MIC (Proteus vulgaris): 10 µM (≈ 1.96 µg/mL)
- MIC (Enterococcus faecalis): 10 µM (≈ 1.96 µg/mL)
- MIC (Escherichia coli [15]): 326 µM (≈ 63.9 µg/mL)
- MIC (Escherichia coli [16]): 326 µM (≈ 63.9 µg/mL)
- MIC (Pseudomonas aeruginosa [17]): 326 µM (≈ 63.9 µg/mL)
- MIC (Bacillus cereus): 10 µM (≈ 1.96 µg/mL)
- MIC (Escherichia coli [18]): 1300 µM (≈ 256 µg/mL)
- MIC (Staphylococcus aureus [19]): 82 µM (≈ 16.1 µg/mL)
- MIC (Staphylococcus aureus [20]): 41 µM (≈ 8.04 µg/mL)
- MIC (Pseudomonas aeruginosa [21]): 326 µM (≈ 63.9 µg/mL)
- MIC [22]: 41 µM (≈ 8.04 µg/mL)
- MIC [23]: 10 µM (≈ 1.96 µg/mL)
- MIC [24]: 20 µM (≈ 3.92 µg/mL)
- MIC (Pseudomonas aeruginosa [25]): 326 µM (≈ 63.9 µg/mL)
- MIC (Escherichia coli [26]): 20 µM (≈ 3.92 µg/mL)
- MIC (Pseudomonas aeruginosa [27]): 1300 µM (≈ 256 µg/mL)
- MIC (Staphylococcus aureus [28]): 20 µM (≈ 3.92 µg/mL)
- MIC (Enterococcus hirae): 10 µM (≈ 1.96 µg/mL)
- MIC (Staphylococcus aureus [29]): 20 µM (≈ 3.92 µg/mL)
- MIC [30]: 20 µM (≈ 3.92 µg/mL)
- MIC (Pseudomonas aeruginosa [31]): 652 µM (≈ 128 µg/mL)
- MIC (Escherichia coli [32]): > 1300 µM
- MIC (Pseudomonas aeruginosa [33]): 326 µM (≈ 63.9 µg/mL)
- MIC (Escherichia coli [34]): 326 µM (≈ 63.9 µg/mL)
- MIC (Staphylococcus aureus [35]): 20 µM (≈ 3.92 µg/mL)
- MIC (Staphylococcus aureus [36]): 82 µM (≈ 16.1 µg/mL)
- MIC (Staphylococcus aureus [37]): 82 µM (≈ 16.1 µg/mL)
- MIC (Escherichia coli [38]): 326 µM (≈ 63.9 µg/mL)
- MIC (Staphylococcus aureus [39]): 82 µM (≈ 16.1 µg/mL)
- MIC (Staphylococcus aureus [40]): 82 µM (≈ 16.1 µg/mL)
- MIC (Escherichia coli [41]): 326 µM (≈ 63.9 µg/mL)
- MIC (Pseudomonas aeruginosa [42]): 326 µM (≈ 63.9 µg/mL)
- MIC (Pseudomonas aeruginosa [43]): 326 µM (≈ 63.9 µg/mL)
